The test system of experiment [1] is E. coli LZ2310(pLBII-VIM-2). The experiment is described as follows: microbe, parasite or virus in culture. Type of experiment: cell-based, Escherichia coli. The procedure: The potential activity of selected compounds was assessed by the agar disk-diffusion method, according to the CLSI (Clinical Laboratory Standard Institute) recommendations, using Mueller–Hinton medium. The inhibitor (dissolved in DMSO) was added (maximum volume of 15 μL) to a commercially available disk containing a defined amount of a β-lactam antibiotic (30 μg of cefoxitin (Oxoid, Milan, Italy)). After incubation (18 h at 35 °C), the diameter of the growth inhibition zone was measured and compared to that obtained in the absence of inhibitor. DMSO and EDTA (220 μg) were used as negative and positive controls, respectively. Experiments were performed in triplicate.
These tests were performed on an isogenic laboratory strain obtained after transforming Escherichia coli LZ2310 strain with a derivative of the high copy number plasmid pLB-II carrying the cloned blaVIM-2 gene harboring a cloned gene encoding the functional metallo-β-lactamase. Strain LZ2310 is a triple knockout mutant derived from K12 in which the genes encoding for components of the three major efflux pump systems were inactivated (genotype, ∆norE ∆mdfA N43 acrA1) and was used to generate an hyperpermeable background for MBL production and investigate the potential contribution of such mechanisms to inhibitor efflux.

The next experiment concerns the target T1, VIM-1 (Pseudomonas aeruginosa, UniProt A0A0F7KYQ8).
T1 construct: made in house; host or cells: E. coli BL21(DE3) derivative, pET-9a
The experiment is described as follows: MBL inhibition, reporter substrate method, VIM-1. The conditions noted are these: read-out: Inhibition of VIM-1 (dash). Type of experiment: biochemical. As for the experimental part: (§1) Compounds were prepared in DMSO at a final concentration of 50 mM prior to dilution in the assay buffer. The reaction rate was measured as the variation of absorbance observed upon substrate hydrolysis in a UV-Vis spectrophotometer or microplate reader at a wavelength of 300 nm (imipenem, meropenem), 260 nm (cefotaxime), or 482 nm (nitrocefin) and in the presence of a purified MBL enzyme (such as VIM-1, VIM-2, VIM-4, NDM-1, and IMP-1, at a final concentration ranging from 1 to 70 nM).
(§2) These enzymes were overproduced in derivatives of E. coli BL21(DE3) carrying a pET-9 a (IMP-1, VIM-1, VIM-2, and VIM-4) or pET-15 b (NDM-1) vector into which the metallo-β-lactamase-encoding open reading frame was cloned. Bacterial strains were grown in the auto-inducing medium, ZYP-5052, supplemented with 50 μg/mL kanamycin for 24 h at 37 °C [38]. IMP-1, VIM-1, VIM-2, and VIM-4 were purified by ion-exchange and gel filtration chromatography using an AKTA Purifier platform (GE Healthcare, Uppsala, Sweden) as previously described. NDM-1 (residues 37-270) was produced as an amino-terminal 6 xHis-tag fusion protein and was purified using affinity chromatography. After growth for 26 h at 25 °C, bacterial cells were harvested by centrifugation (10,000× g, 30 min, 4 °C), resuspended in 10 mM HEPES buffer (pH 7.5) containing 0.15 M NaCl (buffer A) in one-fifth of the original culture volume, and lysed by sonication. Cellular debris was removed by centrifugation (12,000× g, 40 min, 4 °C). The clarified sample was loaded on a HisTrap HP column (bed volume, 5 mL; GE Healthcare), followed by a wash step (25 mL) with buffer A containing 20 mM imidazole. Proteins were eluted using buffer A containing 350 mM imidazole. The resulting protein sample was desalted (HiPrep 26/10 Desalting column, GE Healthcare) using 20 mM triethanolamine (pH 7.2) supplemented with 50 μM ZnSO4 and concentrated using an Amicon Ultra-15 (MW cut-off, 10 kDa; Millipore, Burlington, MA, USA). The concentrated sample was loaded on a Superdex 75 prep grade column (XK16/100 column; bed volume, 140 mL; GE Healthcare) and the proteins eluted with buffer A containing 50 μM ZnSO4. The active fractions were pooled and stored at −20 °C. The purity of the protein preparations was estimated >95% by SDS-PAGE analysis. The authenticity of the enzyme preparations was confirmed by electron spray ionization mass spectrometry, as previously described.
(§3) The inhibition constants (Ki) were determined on the basis of a model of competitive inhibition by analyzing the dependence of the ratio v0/vi (v0, hydrolysis velocity in the absence of inhibitor; vi, hydrolysis velocity in the presence of inhibitor) as a function of [I] as already described. The slope of the plot of v0/vi vs. [I], which corresponds to Km^S/(Km^S + [S])Ki (where Km^S is the Km value of the reporter substrate and [S] its concentration in the reaction mixture) and allowed the calculation of the Ki value. Alternatively, a Dixon plot analysis was carried out by measuring the initial hydrolysis rates in the presence of variable concentrations of inhibitor and substrate. This allowed Ki values to be determined and supported the hypothesis that the various compounds behaved as competitive inhibitors of the various tested enzymes. The assays were performed in triplicate.

For the next experiment, the target named is T2, L1 (Stenotrophomonas maltophilia, UniProt P52700).
T2 construct: made in house
T2 sequence (P52700 34-290): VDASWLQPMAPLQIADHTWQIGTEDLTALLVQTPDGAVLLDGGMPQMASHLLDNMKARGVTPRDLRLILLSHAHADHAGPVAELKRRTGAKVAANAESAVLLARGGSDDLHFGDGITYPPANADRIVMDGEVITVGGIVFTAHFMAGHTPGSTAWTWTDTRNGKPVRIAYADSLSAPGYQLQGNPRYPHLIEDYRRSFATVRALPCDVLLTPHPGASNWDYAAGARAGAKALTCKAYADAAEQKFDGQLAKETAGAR
As to the kind of experiment: MBL inhibition, L1 (nitrocefin hydrolysis). In kind it is biochemical. The conditions noted are these: 100 μM inhibitor; read-out: Inhibition of L1 (dash). The procedure:
Compounds were prepared as 10 mM solutions in DMSO before dilution with appropriate buffers. Buffers were 25 mM Hepes pH 7.5 for CphA or 25 mM Hepes pH 7.5, 50 µM ZnCl2 for L1. The rates in the absence of inhibitor were not modified by addition of 1% DMSO. CphA and L1 enzymes, purified as previously described, were used at concentrations between 0.2 and 0.8 nM, respectively. The enzyme and the inhibitor (100 µM) were pre-incubated for 30 min in a volume of 495 µL at room temperature. The hydrolysis of a solution of 100 µM imipenem for CphA was monitored by following the absorbance variation at 300 nm using a Specord 50 PLUS spectrophotometer (Analytik Jena, Jena, Germany). For L1, the reporter substrate was nitrocefin (100 µM). The enzyme activity was measured by following the absorbance variation at 482 nm. The substrate hydrolysis was done at 30 °C. The activity was tested by measuring the initial rates in three samples without inhibitor that allowed to determine the percentage of residual β-lactamase activity in the presence of inhibitors. If the residual activity in the presence of 100 µM inhibitor was <30%, the initial rate conditions were used to study the inhibition in the presence of increasing concentrations of compounds (from 1 to 100 µM) and to determine the competitive inhibition constant Ki. The Hanes linearization of the Henri–Michaelis equation was used, and Ki was calculated on the basis of the following equation, v = (Vmax.S)/[S + Km(1 + I/Ki)]. The assays were performed in triplicates.

In another experiment the target is T3, VIM-4 (Pseudomonas aeruginosa, UniProt A0A0F7KYQ8, S205R).
T3 construct: made in house; host or cells: E. coli BL21(DE3) derivative, pET-9a
The experiment is described as follows: MBL inhibition, reporter substrate method, VIM-4. In kind it is biochemical. The following applies: read-out: Inhibition of VIM-4 (dash). As for the experimental part: as §1, §2, §3

Another experiment addresses NDM-1 (Klebsiella pneumoniae, UniProt C7C422). As to the kind of experiment: MBL inhibition, reporter substrate method, NDM-1. In kind it is biochemical. The procedure: as §1, §2, §3
The mark [2] stands for this setting: Escherichia coli, read-out: Inhibition Zone Diameter.

Where only a bound is given, the exact number is not on record here.

Sequence of NDM-1 (C7C422 37-270 limits assumed): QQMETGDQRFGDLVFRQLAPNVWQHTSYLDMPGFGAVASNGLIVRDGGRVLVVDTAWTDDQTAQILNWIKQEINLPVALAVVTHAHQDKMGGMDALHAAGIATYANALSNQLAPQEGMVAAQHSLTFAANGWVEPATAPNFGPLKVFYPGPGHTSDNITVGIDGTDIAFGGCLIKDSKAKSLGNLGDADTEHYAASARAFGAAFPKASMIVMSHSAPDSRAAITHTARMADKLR

In the case of `O=C(O)c1ccccc1CNn1c(-c2ccccc2)n[nH]c1=S` [Compound 1], in experiment [1] (30 μg cefoxitin disk, compound 1 at 48 μg, EUCAST clinical breakpoints), the “Restoration of cefoxitin activity (in words)” value is given as “able to restore cefoxitin susceptibility”. Besides, in experiment [1] (setting [2]), the zone of inhibition at 16 µg/disc is 13 mm. For the same compound, the zone of inhibition at 32 µg/disc in experiment [1] (setting [2]) was 16 mm. Also, the zone of inhibition at 48 µg/disc in experiment [1] (setting [2]) was 20 mm. In addition, the inhibition at 100 µM was below 30% on VIM-1, below 30% on L1, below 30% on VIM-4 and below 40% at NDM-1 (read-out: Inhibition of NDM-1 (dash in Ki column)). For the same compound, at NDM-1, the “Inhibition of NDM-1 (in words)” value was “inactive”.

The values above are taken from publication PMC7465886, “4-(N-Alkyl- and -Acyl-amino)-1,2,4-triazole-3-thione Analogs as Metallo-β-Lactamase Inhibitors: Impact of 4-Linker on Potency and Spectrum of Inhibition” (Biomolecules, 2020).
